Test results as given in patent publication US12673036B2, “Method of using L-triiodothyronine (T3) for the treatment of tissue hypoxia and sepsis” (UNI-PHARMA KLEON TSETIS PHARMACEUTICAL LABORATORIES S.A., priority 2020, dated 2026).
Read-outs that look alike come from different tables or passages of the source.

Tests used:
[1] = system: patients with non-ST-segment elevation myocardial infarction; conditions: patients with NSTEMI; cited from earlier work
isolated rat heart = assay: Isolated rat heart, prolonged 4 hour hypoxic perfusion ex vivo
Description: (§1) The isolated rat heart model was used to simulate non-ischemic conditions of tissue hypoxia ex vivo. In this study, rat hearts were only perfused with oxygenated Krebs buffer containing electrolytes and glucose under normothermia. Despite normal perfusion, the organ gradually develops significant dysfunction over hours due to the absence of erythrocytes and hemoglobin that create hypoxic conditions. […] It should be noted that such an increase in LVEDP may lead to pulmonary edema in vivo. Furthermore, the force of contraction was reduced as evident by a 25% decrease in left ventricular developed pressure (LVDP) in Control hearts (FIG. 2).

p38 MAPK [2] = assay: p38 MAPK activation in isolated rat heart after 4 hours hypoxic perfusion; conditions: after 4 hours of prolonged hypoxic perfusion, p<0.05
Description: as §1

male C57BL/6N mice = assay: Cecal ligation and puncture (CLP) sepsis model; format: in vivo
Protocol: The effect of T3 administration in high dosages in the treatment of tissue hypoxia due to microvascular dysfunction occurring in the myocardium, kidneys and liver is evaluated in a sepsis experimental model using male C57BL/6N mice of 10-12 weeks age. The animal studies were carried out in compliance with all necessary regulations in force.
The simulation of the clinical conditions during sepsis leading to tissue hypoxia and microvascular dysfunction is achieved following the most widely used clinical model of cecal ligation and puncture (CLP). In this experimental model, ligation distal to the ileocecal valve (25% of total cecum length) and perforation by a single 21 G puncture is performed under sevoflurane anesthesia causing leakage of fecal contents into the peritoneum, with subsequent polymicrobial bacteremia and sepsis. The perforation of the cecum allows the release of fecal material into the peritoneal cavity to generate an exacerbated immune response induced by polymicrobial infection. In this model, sepsis causes systemic activation of the inflammatory response, microvascular dysfunction, tissue hypoxia, multi-organ failure, and hemodynamic disorder that results in death as in clinical practice.
The animals are supported by subcutaneous fluid administration every 8 hours and administration of buprenorphine 0.1 mg/kg and paracetamol 300 mg/kg, as is the case with septic patients in the intensive care unit (ICU). All animals are closely monitored for their clinical status based on a modified score scale known as the Lipopolysaccharide (LPS) Score Sheet.
The animals divide into 2 groups: the first group receives placebo (placebo group) and the second group receives intraperitoneally a dose of 0.3 μg T3/g of body weight, immediately after surgery (group T3). Based on guidelines for converting doses from experimental animals to equivalent doses in humans (Nair, A B and Jacob S. A simple practice guide for dose conversion between animals and humans. I Basic C/in Pharma 2016, 7: 27-31), the dose of 0.3 μg T3/g of body weight, corresponds roughly to intravenous administration of 7 μg T3/Kg body weight, i.e., from 400 to 600 μg T3 for a patient weighing 60-80 Kg. This dose is very high and beyond any T3 treatment in hypothyroid patients. The study is performed in two separate experiments. In the first experimental protocol, the clinical condition of the animals and mortality after 72 hours is examined, while in the second experimental protocol, tissue hypoxia at the cellular level after euthanasia at 18 hours is studied.
Initially, lactate levels in blood samples are measured (using L-lactate assay kit from Sigma-Aldrich, MAK329) as a general indicator of hypoxia, which is also commonly used in clinical practice in patients with sepsis. Furthermore, creatinine levels in blood are measured as an indicator of renal function (using the Mouse Creatinine Kit Cat. 80350, Crystal Chem). Finally, an echocardiographic analysis is performed in order to evaluate the end-diastolic and end-systolic volume, the ejection fraction and the pulse volume according to the Simpson rule.
Echocardiographic analysis was performed after mild anesthesia with sevoflurane (0.8%) and placing the animal in a heated blanket. Echocardiographic images were then taken along the longitudinal and transverse sternal axis with the Vivid 7 version Pro ultrasound system (GE Healthcare, Wauwatosa, Wisconsin), equipped with a 14.0-MHz probe (i13L).
Tissue hypoxia at the cellular level is determined in frozen fixed tissues in 4% paraformaldehyde based on the standard method of pimonidazole administration using the Hypoxyprobe™ Plus kit. Pimonidazole is dissolved and administered intravenously in mice at a dose of 60 mg/kg, 2 hours before euthanasia. After intracardiac infusion with paraformaldehyde, the organs are fixed, removed and dehydrated for 5 days in 30% sucrose solution. […]

sepsis = conditions: rat sepsis models; cited from earlier work
p38 MAPK [3] = conditions: T3 40 μg/L, P<0.05, cited from earlier work
[4] = system: xenograft models (non-small cell lung, multiple myeloma, breast, glioblastoma, and ovary); conditions: cited from earlier work
[5] = 40 μg/L after first 30 min of hypoxic perfusion, 4 hours
[6] = 18 hours after sepsis induction

Compound: Cc1c(F)cc(C(=O)NC2CC2)cc1-c1ccc(C(=O)NCC(C)(C)C)cn1 [Losmapimod]
- myocardial protective effects [1]: presented myocardial protective effects

Compound: N[C@@H](Cc1cc(I)c(Oc2ccc(O)c(I)c2)c(I)c1)C(=O)O [T3, L-triiodothyronine]
- diastolic dysfunction (isolated rat heart; [5]): attenuated diastolic dysfunction
- left ventricular end-diastolic pressure (LVEDP) (isolated rat heart; [5]): maintained LVEDP at normal values
- force of contraction (left ventricular developed pressure, LVDP) (isolated rat heart; 40 μg/L, after 4 hours): improved force of contraction
- perfusion pressure of coronary vessels (microvascular dysfunction) (isolated rat heart; after 4 hours hypoxic perfusion): lower perfusion pressure
- prevention of p38 MAPK activation (p38 MAPK [2]): 3 fold
- creatinine levels (male C57BL/6N mice; 18 hours after sepsis): did not increase
- hepatic tissue hypoxia (pimonidazole) (male C57BL/6N mice; 18 hours after sepsis): statistically significant reduction
- renal tissue hypoxia (pimonidazole) in OSOM and ISOM (male C57BL/6N mice; 18 hours after sepsis): significantly reduce
- ejection fraction (echocardiography) (male C57BL/6N mice; [6]): within normal range
- pulse volume (echocardiography) (male C57BL/6N mice; [6]): within normal range
- lactic acid levels in blood (male C57BL/6N mice; 18 hours after sepsis, 0.3 μg T3/g i.p.): decrease
- myocardial tissue hypoxia, pimonidazole-positive tissue of the left ventricular total tissue (male C57BL/6N mice; 18 hours, p=0.028 vs placebo): 1.5%±0.5
- lactic acid levels in blood (male C57BL/6N mice; 24 hours after sepsis, 0.3 μg T3/g i.p.): decrease
- animals surviving (male C57BL/6N mice; 72 hours after CLP, 0.3 μg T3/g i.p.): up to 20%
- heart rate (male C57BL/6N mice; after sepsis induction): within normal range
- cytokine storm (sepsis): reduce cytokine storm
- lung function and surfactant synthesis (sepsis): maintain lung function and surfactant synthesis
- survival (sepsis): improve survival
- phospho-p38 MAPK levels, less than control (p38 MAPK [3]; after 5 minutes of reperfusion): 2.3 fold
- phospho-p38 MAPK levels, less than control (p38 MAPK [3]; after 15 minutes of reperfusion): 2.1 fold

Compound: CC(C)(C)Cn1c(N)nc2ccc(-c3[nH]c(C(C)(C)C)nc3-c3ccc(F)cc3)nc21 [Ralimetinib]
- antineoplastic activity as a single agent [4]: demonstrated antineoplastic activity
